Laboratory results as given in US4460782A, “2-Ethoxymethyl and 2-methoxymethyl N-(3,5-dichlorophenyl) succinamides” (Consortium fur Elektrochemische Industrie GmbH, priority 1980, dated 1984).
Where two headings read alike, the source gives them in different places.

Assays:
[1] = test system: Fusarium nivale; test: Spore germination test, Fusarium nivale; format: cell-based; details: Microdochium nivale; 500 ppm active substance; 48 hours at 20° C.; vs untreated control; read-out: Fungitoxicity against fungi spore, Fusarium nivale (effectiveness)
Experimental: (§1) 50 μl of a solution or suspension containing 500 ppm of the active substance are introduced into the hollow of hollow-ground slides, together with 50 μl of a spore suspension prepared by washing the spores from an agar culture with a nutrient solution containing, per liter, 10 g of sugar, 1 g of glycol, 1 g of KH2 PO4 and 0.5 g of MgSO4.
(§2) The slides are kept at 20° C. for 48 hours in a petri dish, the base of which is covered with a moistened filter paper.
(§3) The ratio of germinated and ungerminated spores is then compared with an untreated control sample.
(§4) The effectiveness is calculated as a percentage according to the following formula: [formula]
(§5) The test set-up and procedure are the same as those described in Example 5.

[2] = test system: Tilletia tritici; test: Seed dressing test against wheat bunt (Tilletia tritici); format: in vivo; details: Tilletia caries, read-out: % effectiveness (percentage germination inhibition)
Experimental: Healthy wheat seed is uniformly infected with spores of Tilletia tritici.The infected seed is subsequently dressed carefully with the active substances according to the invention, prepared in the form of dry dressings.
After being dressed, the wheat grains are placed in dishes of damp earth. Incubation takes place in a drying cupboard at from 14° to 17° C. After 48 hours, the spores adhering to the grains are removed by pressing the grains into loam/earth.
After incubation for a further eight days at from 14° to 17° C. in the drying cupboard, the ratio of germinated and ungerminated spores as, compared with an untreated control, is determined under a binocular microscope.
The action of the active substances according to the invention, is given as percentage germination inhibition. […]

[3] = test system: Botrytis cinerea; test: Spore germination test, Botrytis cinerea; format: cell-based; details: 500 ppm active substance, 48 hours at 20° C., vs untreated control, read-out: Fungitoxicity against fungi spore, Botrytis cinerea (effectiveness)
Experimental: as §1, §2, §3, §4, §5

[4] = test system: Botrytis cinerea; test: Grape juice test against Botrytis cinerea; format: cell-based; details: 10 ppm active substance
Experimental: 20 ml of a nutrient solution consisting of grape juice and distilled water in a weight ratio of 1:1 are poured into glass petri dishes and the active substances listed in Table 1 are added thereto in the concentrations indicated. Each test mixture is then inoculated with 50 μl of a suspension of Botrytis spores, prepared by washing the Botrytis spores from an agar culture with distilled water.
After incubation periods of 10 and 20 days, respectively, at 20° C., the extent of fungal development on the surface of the nutrient solution is assessed.
The effectiveness is calculated as a percentage, according to the following formula: [formula] […]

[5] = test system: Penicillium glaucum; test: Spore germination test, Penicillium glaucum; format: cell-based; details: 500 ppm active substance, 48 hours at 20° C., vs untreated control, read-out: Fungitoxicity against fungi spore, Penicillium glaucum (effectiveness)
Experimental: as §1, §2, §3, §4, §5

[6] = test system: Alternaria solani; test: Spore germination test, Alternaria solani; format: cell-based; details: 500 ppm active substance, 48 hours at 20° C., vs untreated control, read-out: Fungitoxicity against fungi spore, Alternaria solani (effectiveness)
Experimental: as §1, §2, §3, §4, §5

[7] = test system: Septoria nodorum; test: Spore germination test, Septoria nodorum; format: cell-based; details: Parastagonospora nodorum; 500 ppm active substance; 48 hours at 20° C.; vs untreated control; read-out: Fungitoxicity against fungi spore, Septoria nodorum (effectiveness)
Experimental: as §1, §2, §3, §4, §5

[8] = 240 h, 10 days at 20° C., read-out: % effectiveness after 10 days
[9] = 480 h, 20 days at 20° C., read-out: % effectiveness after 20 days

SMILES | inhibition of growth at 500 ppm [1] [%] | inhibition at 100 ppm [2] [%] | inhibition of growth at 500 ppm [3] [%] | inhibition of growth at 10 ppm [4, 8] [%] | inhibition of growth at 10 ppm [4, 9] [%] | inhibition of growth at 500 ppm [5] [%] | inhibition of growth at 500 ppm [6] [%] | inhibition of growth at 500 ppm [7] [%]
O=C1CC(C2C=CCCC2)C(=O)N1c1cc(Cl)cc(Cl)c1 (centres unmarked) [2-(cyclohex-2-en-1-yl)-succinic acid N--(3,5-dichlorophenyl)imide, reference compound] | 0 | 0 | 25 | 0 | 0 | 0 | 30 | 30
CCC=CCSC1CC(=O)N(c2cc(Cl)cc(Cl)c2)C1=O (centres unmarked) [2-(pent-2-en-1-ylmercapto)-succinic acid N--(3,5-dichlorophenyl)imide, reference compound] | 20 | 40 | 20 | 80 | 45 | 10 | 20 | 10
CC(=O)OC1CC(=O)N(c2cc(Cl)cc(Cl)c2)C1=O (centres unmarked) [2-acetoxysuccinic acid N-(3,5-dichlorophenyl) imide] | 100 | 100 | 100 | 80 | 70 | 100 | 100 | 70
C=CCOC1CC(=O)N(c2cc(Cl)cc(Cl)c2)C1=O (centres unmarked) [2-allyloxysuccinic acid N-(3,5-dichlorophenyl)imide] | 70 | 100 | 100 | 80 | 80 | 80 | 80 | 80
CCOC1CC(=O)N(c2cc(Cl)cc(Cl)c2)C1=O (centres unmarked) [2-ethoxysuccinic acid N-(3,5-dichlorophenyl)imide] | 80 | 90 | 100 | 100 | 100 | 80 | 70 | 
C=CCN1C(=O)CC(OC(=O)C(C)C)C1=O (centres unmarked) [2-isobutyroxysuccinic acid N--allylimide, 2-isobutyroxysuccinic acid N-allylimide] |  | 80 |  |  |  |  |  | 
CC(C)OC1CC(=O)N(c2cc(Cl)cc(Cl)c2)C1=O (centres unmarked) [2-isopropoxysuccinic acid N-(3,5-dichlorophenyl)imide] | 50 | 100 | 100 | 100 | 100 | 100 | 70 | 50
COCC1CC(=O)N(c2cc(Cl)cc(Cl)c2)C1=O (centres unmarked) [2-methoxymethylsuccinic acid N-(3,5-dichlorophenyl)imide] | 100 | 100 | 100 | 100 | 100 | 100 | 100 | 70
COCC1CC(=O)N(c2cccc(Cl)c2)C1=O (centres unmarked) [2-methoxymethylsuccinic acid N-(3-chlorophenyl)imide] |  | 80 |  | 90 | 80 |  |  | 
CCC(C)N1C(=O)CC(COC)C1=O (centres unmarked) [2-methoxymethylsuccinic acid N-(but-2-yl)imide] |  | 80 |  |  |  |  |  | 
COC1CC(=O)N(c2cc(Cl)cc(Cl)c2)C1=O (centres unmarked) [2-methoxysuccinic acid N-(3,5-dichlorophenyl) imide] | 90 | 95 | 100 | 100 | 100 | 80 | 90 | 
CCCc1ccc(N2C(=O)CC(OC)C2=O)cc1 (centres unmarked) [2-methoxysuccinic acid N--(4-propylphenyl)imide] |  | 80 |  |  |  |  |  | 
CC(C)NC(=O)N1CC(=O)N(c2cc(Cl)cc(Cl)c2)C1=O [Rovral, 3-(3,5-dichlorophenyl)-1-isopropylcarbymoylhydantoin, reference compound] | 0 | 75 | 100 |  |  | 60 | 0 | 30
